According to PubChem BioAssay AID330 (DTP/NCI, 2004):
“And” between values parts separate entries of the source, which are not always exact repeats. Equal entries are not always repeated. Toxic doses and inconclusive results are not listed. Rule for the calls: active = survival T/C of 150% or more; inactive = T/C below 125% in these data.

System: P388 leukemia ip, CD2F1 mice, survival T/C
Assay: NCI In Vivo Anticancer Drug Screen. Data for tumor model P388 Leukemia (intraperitoneal) in CD2F1 (CDF1) mice
Details: endpoint: median survival time, higher = longer survival
In short: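 Mice carrying the transplanted tumor received test compound or vehicle. Survival was recorded in each group, and the value is the treated-group measurement divided by that of the vehicle-treated control group.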

[1] = dose: 50.0 mg/kg/injection, schedule: Q01DX009 (ip), vehicle: saline
[2] = dose: 100.0 mg/kg/injection, schedule: Q01DX009 (ip), vehicle: saline
[3] = dose: 200.0 mg/kg/injection, schedule: Q01DX009 (ip), vehicle: saline
[4] = dose: 100.0 mg/kg/injection, schedule: Q04DX003 (ip), vehicle: saline with Tween-80
[5] = dose: 200.0 mg/kg/injection, schedule: Q04DX003 (ip), vehicle: saline with Tween-80
[6] = dose: 50.0 mg/kg/injection, schedule: Q01DX005 (ip), vehicle: saline with Tween-80
[7] = dose: 100.0 mg/kg/injection, schedule: Q01DX005 (ip), vehicle: saline with Tween-80
[8] = dose: 200.0 mg/kg/injection, schedule: Q01DX005 (ip), vehicle: saline with Tween-80
[9] = dose: 50.0 mg/kg/injection, schedule: Q01DX009 (ip), vehicle: saline with Tween-80
[10] = dose: 100.0 mg/kg/injection, schedule: Q01DX009 (ip), vehicle: saline with Tween-80
[11] = dose: 200.0 mg/kg/injection, schedule: Q01DX009 (ip), vehicle: saline with Tween-80
[12] = dose: 60.0 mg/kg/injection, schedule: Q01DX005 (ip), vehicle: saline with Tween-80
[13] = dose: 120.0 mg/kg/injection, schedule: Q01DX005 (ip), vehicle: saline with Tween-80

Measured: T/C

CCCCCCCCCCCCCCC(O)c1cccc(OC)c1 (centres undefined)
inactive: dose: 7.5 mg/kg/injection, schedule: Q01DX009 (ip), vehicle: saline with Tween-80 109 % of control | dose: 15.0 mg/kg/injection, schedule: Q01DX009 (ip), vehicle: saline with Tween-80 113 % of control | dose: 30.0 mg/kg/injection, schedule: Q01DX009 (ip), vehicle: saline with Tween-80 109 % of control

C=C(C#N)CCl
inactive: dose: 25.0 mg/kg/injection, schedule: Q01DX001 (ip), vehicle: saline with Tween-80 104 % of control | dose: 50.0 mg/kg/injection, schedule: Q01DX001 (ip), vehicle: saline with Tween-80 95 % of control

Cc1cc(OC(=O)c2c(C)cc(O)cc2O)cc(O)c1C(=O)O
inactive: dose: 0.25 mg/kg/injection, schedule: Q01DX009 (ip), vehicle: saline with Tween-80 101 % of control | dose: 0.5 mg/kg/injection, schedule: Q01DX009 (ip), vehicle: saline with Tween-80 102 % of control | dose: 1.0 mg/kg/injection, schedule: Q01DX009 (ip), vehicle: saline with Tween-80 101 % of control

CC(Cc1ccccc1)C(=O)Nc1ccccc1 (centres undefined)
inactive: dose: 100.0 mg/kg/injection, schedule: Q04DX002 (ip), vehicle: saline with Tween-80 91 % of control | dose: 200.0 mg/kg/injection, schedule: Q04DX002 (ip), vehicle: saline with Tween-80 94 % of control | dose: 400.0 mg/kg/injection, schedule: Q04DX002 (ip), vehicle: saline with Tween-80 91 % of control

Nc1cc(=O)nc2cn[nH]n12
inactive: [1] 92 % of control | [2] 101 % of control | [3] 90 % of control

CC(C)C(NC(=O)C(C)N(C)C)C(=O)N1CCC2Oc3ccc(cc3)/C=C\NC(=O)C(Cc3ccccc3)NC(=O)C21 (centres undefined)
inactive: [4] 97 % of control | [5] 95 % of control | dose: 400.0 mg/kg/injection, schedule: Q04DX003 (ip), vehicle: saline with Tween-80 96 % of control

CS(=O)(=O)c1nnc(-c2cc[n+]([O-])cc2)s1
inactive: dose: 6.25 mg/kg/injection, schedule: Q01DX005 (ip), vehicle: Klucel (hydroxypropylcellulose) (HPC) 114 % of control | dose: 12.5 mg/kg/injection, schedule: Q01DX005 (ip), vehicle: Klucel (hydroxypropylcellulose) (HPC) 114 % of control

N#Cc1nc(CC(=O)c2ccncc2)c(CC(=O)c2ccncc2)nc1C#N
inactive: dose: 60.0 mg/kg/injection, schedule: Q01DX005 (ip), vehicle: saline 109 % of control | dose: 120.0 mg/kg/injection, schedule: Q01DX005 (ip), vehicle: saline 106 % of control | dose: 240.0 mg/kg/injection, schedule: Q01DX005 (ip), vehicle: saline 97 % of control

Br[C](Br)(Br)[Hg][c]1ccccc1
inactive: dose: 3.13 mg/kg/injection, schedule: Q01DX009 (ip), vehicle: saline with Tween-80 106 % of control | dose: 6.25 mg/kg/injection, schedule: Q01DX009 (ip), vehicle: saline with Tween-80 100 % of control | dose: 12.5 mg/kg/injection, schedule: Q01DX009 (ip), vehicle: saline with Tween-80 104 % of control

CCC(C)Sc1nc2ccc(NC(=O)/C=C/C(=O)O)cc2s1 (centres undefined)
inactive: dose: 100.0 mg/kg/injection, schedule: Q04DX003 (ip), vehicle: Klucel (hydroxypropylcellulose) (HPC) 95 % of control | dose: 200.0 mg/kg/injection, schedule: Q04DX003 (ip), vehicle: Klucel (hydroxypropylcellulose) (HPC) 100 % of control

C[C@@]12C(=O)OC(=O)[C@]1(C)[C@H]1CC[C@@H]2O1
inactive: dose: 0.5 mg/kg/injection, schedule: Q01DX005 (ip), vehicle: acetone 105 % of control | dose: 62.5 micrograms/kg/injection, schedule: Q01DX005 (ip), vehicle: acetone 102 % of control | dose: 125.0 micrograms/kg/injection, schedule: Q01DX005 (ip), vehicle: acetone 107 % of control | dose: 250.0 micrograms/kg/injection, schedule: Q01DX005 (ip), vehicle: acetone 102 % of control | dose: 500.0 micrograms/kg/injection, schedule: Q01DX005 (ip), vehicle: acetone 102 % of control

CN(CCN1C(=O)c2cccc3cc(N)cc(c23)C1=O)CCN1C(=O)c2cccc3cc(N)cc(c23)C1=O
inactive: [6] 112 % of control | [7] 106 % of control | [8] 107 % of control

CN(C)P(=O)(N(C)C)N1CCCCC1
inactive: [9] 97 % of control | [10] 114 % of control | [11] 100 % of control

CCOC(=O)OCC(=O)[C@@]1(O)CC[C@H]2[C@@H]3CCC4=CC(=O)CC[C@]4(C)[C@H]3[C@@H](O)C[C@@]21C
inactive: [9] 104 % of control | dose: 50.0 mg/kg/injection, schedule: Q04DX003 (ip), vehicle: saline with Tween-80 100 % of control | [10] 100 % of control | [4] 100 % of control | [11] 90 % of control | [5] 100 % of control

Cc1cc(C)n(/C(N)=N/[N+](=O)[O-])n1
inactive: [1] 96 % of control | [2] 105 % of control | [3] 86 % of control

FC(F)(F)c1ccc2nc3c(nc2c1)-c1ccc(Br)c2cccc-3c12
inactive: [1] 115 % of control | [2] 101 % of control | [3] 99 % of control

CC1(C)C=CC(=O)C=C1C#N
inactive: dose: 100.0 mg/kg/injection, schedule: Q01DX001 (ip), vehicle: Klucel (hydroxypropylcellulose) (HPC) 92 % of control | dose: 200.0 mg/kg/injection, schedule: Q01DX001 (ip), vehicle: Klucel (hydroxypropylcellulose) (HPC) 104 % of control | dose: 400.0 mg/kg/injection, schedule: Q01DX001 (ip), vehicle: Klucel (hydroxypropylcellulose) (HPC) 106 % of control

OCCNC(Cc1ccccc1)c1c(O)ccc2ccccc12 (centres undefined)
inactive: dose: 50.0 mg/kg/injection, schedule: Q01DX005 (ip), vehicle: Klucel (hydroxypropylcellulose) (HPC) 100 % of control | dose: 100.0 mg/kg/injection, schedule: Q01DX005 (ip), vehicle: Klucel (hydroxypropylcellulose) (HPC) 94 % of control | dose: 200.0 mg/kg/injection, schedule: Q01DX005 (ip), vehicle: Klucel (hydroxypropylcellulose) (HPC) 100 % of control

Cc1onc(-c2c(Cl)cccc2Cl)c1C(=O)SC1=NC(C)N2C(SC(=O)c3c(-c4c(Cl)cccc4Cl)noc3C)=NC(C)N12 (centres undefined)
inactive: [6] 90 % of control | [7] 87 % of control

CCc1c(NCCO)c(C(=O)NCCO)c2nc3ccccc3n2c1NCCO
inactive: [12] 101 % of control | [13] 99 % of control | dose: 240.0 mg/kg/injection, schedule: Q01DX005 (ip), vehicle: saline with Tween-80 99 % of control

Cn1c(C(F)(F)F)nc2nc(Cl)c(Cl)nc21
inactive: dose: 25.0 mg/kg/injection, schedule: Q01DX005 (ip), vehicle: saline with Tween-80 108 % of control | [6] 106 % of control | [7] 101 % of control and 106 % of control | [8] 99 % of control and 103 % of control | dose: 400.0 mg/kg/injection, schedule: Q01DX005 (ip), vehicle: saline with Tween-80 101 % of control

O=C1CC(c2ccccc2)Oc2cc(O)cc(O)c21 (centres undefined)
inactive: dose: 12.5 mg/kg/injection, schedule: Q01DX009 (ip), vehicle: Klucel (hydroxypropylcellulose) (HPC) 98 % of control | dose: 25.0 mg/kg/injection, schedule: Q01DX009 (ip), vehicle: Klucel (hydroxypropylcellulose) (HPC) 98 % of control | dose: 50.0 mg/kg/injection, schedule: Q01DX009 (ip), vehicle: other 110 % of control | dose: 100.0 mg/kg/injection, schedule: Q01DX009 (ip), vehicle: Klucel (hydroxypropylcellulose) (HPC) 98 % of control | dose: 200.0 mg/kg/injection, schedule: Q01DX009 (ip), vehicle: other 102 % of control | dose: 400.0 mg/kg/injection, schedule: Q01DX009 (ip), vehicle: other 102 % of control

Cc1ccc(C(C)C)c2c1CN(CCCN1COc3c(C(C)C)ccc(C)c3C1)CO2
inactive: [12] 91 % of control | [13] 86 % of control
